# “And” between values parts separate entries of the source, which are not always exact repeats. Equal entries are not always repeated.
# Molecular target: T1, H. pylori urease (HPU) (Helicobacter pylori, UniProt P69996)
# T1 construct: HPU was prepared as previously described; made in house
# Assay: Inhibition kinetic study (Lineweaver-Burk plots)
# Type: biochemical
# Settings: for Lineweaver-Burk plot raw value (reciprocal velocity): Fig 3A HPU
# Protocol: Michaelis constant KM and the maximum velocity vmax values were evaluated by means of Lineweaver—Burk plots, using the initial velocities at different urea concentrations ([…]), in the absence or presence of 1.00, 0.50, and 0.25 mM Pal. The concentrations of HPU and JBU were both 0.25 mg/mL in the assays. The values were obtained by applying nonlinear regression to the Michaelis-Menten equation. All experiments were performed in triplicate.
# T1 sequence (P14916 whole entry): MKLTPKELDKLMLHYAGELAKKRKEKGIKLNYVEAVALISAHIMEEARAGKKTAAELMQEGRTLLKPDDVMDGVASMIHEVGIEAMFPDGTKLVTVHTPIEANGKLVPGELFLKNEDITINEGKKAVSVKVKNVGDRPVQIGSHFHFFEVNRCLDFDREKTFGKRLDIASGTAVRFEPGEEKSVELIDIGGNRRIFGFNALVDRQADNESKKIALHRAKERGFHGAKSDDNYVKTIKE
# T1 sequence (P69996 whole entry): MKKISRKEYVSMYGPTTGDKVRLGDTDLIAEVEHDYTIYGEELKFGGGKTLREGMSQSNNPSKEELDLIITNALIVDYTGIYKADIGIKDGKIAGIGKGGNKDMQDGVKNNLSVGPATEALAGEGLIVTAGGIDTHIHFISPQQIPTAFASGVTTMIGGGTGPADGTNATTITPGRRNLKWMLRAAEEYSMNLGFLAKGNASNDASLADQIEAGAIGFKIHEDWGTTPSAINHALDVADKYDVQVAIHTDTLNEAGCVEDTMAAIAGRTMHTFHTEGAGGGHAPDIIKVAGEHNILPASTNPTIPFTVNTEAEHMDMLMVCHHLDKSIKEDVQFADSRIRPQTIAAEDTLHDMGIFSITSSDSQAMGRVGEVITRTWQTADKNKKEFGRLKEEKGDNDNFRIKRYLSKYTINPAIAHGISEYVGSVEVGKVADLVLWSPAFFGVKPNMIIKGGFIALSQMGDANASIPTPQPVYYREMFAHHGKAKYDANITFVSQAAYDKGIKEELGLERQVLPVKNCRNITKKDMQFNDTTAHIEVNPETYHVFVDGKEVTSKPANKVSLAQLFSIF
smiles,measurement,setting,value
"COc1cc2c(cc1OC)-c1cc3ccc(OC)c(OC)c3c[n+]1CC2 [Pal, Palmatine]",Lineweaver-Burk plot raw value (reciprocal velocity),"Pal=0.25 mM, 1/urea 0.0333333",3.3428 and 3.026 and 3.128
same,Lineweaver-Burk plot raw value (reciprocal velocity),"Pal=0.25 mM, 1/urea 0.0666667",3.79 and 3.489 and 3.584
same,Lineweaver-Burk plot raw value (reciprocal velocity),"Pal=0.25 mM, 1/urea 0.133333",4.108 and 3.898 and 3.84
same,Lineweaver-Burk plot raw value (reciprocal velocity),"Pal=0.25 mM, 1/urea 0.266667",4.796 and 4.692 and 4.666
same,Lineweaver-Burk plot raw value (reciprocal velocity),"Pal=0.25 mM, 1/urea 0.533333",6.008 and 5.574 and 5.658
same,Lineweaver-Burk plot raw value (reciprocal velocity),"Pal=0.25 mM, 1/urea 1.06667",7.22 and 6.84 and 7.11
same,Lineweaver-Burk plot raw value (reciprocal velocity),"Pal=0.50 mM, 1/urea 0.0333333",6.847 and 6.4288 and 8.753
same,Lineweaver-Burk plot raw value (reciprocal velocity),"Pal=0.50 mM, 1/urea 0.0666667",7.294 and 6.935 and 7.391
same,Lineweaver-Burk plot raw value (reciprocal velocity),"Pal=0.50 mM, 1/urea 0.133333",8.5 and 7.307 and 9.1701
same,Lineweaver-Burk plot raw value (reciprocal velocity),"Pal=0.50 mM, 1/urea 0.266667",11.3701 and 11.0558
same,Lineweaver-Burk plot raw value (reciprocal velocity),"Pal=0.50 mM, 1/urea 0.533333",13.369 and 12.3993
same,Lineweaver-Burk plot raw value (reciprocal velocity),"Pal=0.50 mM, 1/urea 1.06667",12.1433 and 18.315 and 12.9786
same,Lineweaver-Burk plot raw value (reciprocal velocity),"Pal=1.00 mM, 1/urea 0.0333333",10.7527 and 9.785 and 8.636
same,Lineweaver-Burk plot raw value (reciprocal velocity),"Pal=1.00 mM, 1/urea 0.0666667",12.8452 and 10.5708 and 10.7296
same,Lineweaver-Burk plot raw value (reciprocal velocity),"Pal=1.00 mM, 1/urea 0.133333",12.2775 and 12.7551 and 11.5942
same,Lineweaver-Burk plot raw value (reciprocal velocity),"Pal=1.00 mM, 1/urea 0.266667",16.5017 and 10.1061 and 12.6342
same,Lineweaver-Burk plot raw value (reciprocal velocity),"Pal=1.00 mM, 1/urea 0.533333",22.1239 and 12.1729 and 15.3022
same,Lineweaver-Burk plot raw value (reciprocal velocity),"Pal=1.00 mM, 1/urea 1.06667",26.3505 and 13.2013 and 19.861
same,type of urease inhibition,"HPU, Lineweaver-Burk",noncompetitive

# Reference: PMC5207512, “Inhibition of Helicobacter pylori and Its Associated Urease by Palmatine: Investigation on the Potential Mechanism” (PLoS ONE, 2017)
